Where two headings read alike, the source gives them in different places.
How the values were obtained:
A549 cells = assay: Growth/viability of A549 lung cancer cells in culture (cell count); assay type: cell-based, human; conditions: for tumour cell growth (number of cells, percent of untreated): 150 μM, 48 hours, A549
Protocol: FIG. 3A. Cancer cells (A549) were treated with various concentrations of OHOD and MOD11 to determine whether the effect was dependent on the concentration. […] These cells were treated with different concentrations (0-400 μM) of OHOD and MOD11 and the number of cells was determined by flow cytometry.
FIG. 3B. Cancer cells (A549) were treated with compounds indicated on the horizontal axis for 48 hours at 150 μM. Then, the cells were counted and their number and percent of untreated (control) represented on the vertical axis.
Also, a series of α-derivatives of cis-monounsaturated fatty acids were used to investigate their effectiveness in cancer treatment. Two types of experiment were performed. Firstly, the dependency of the anti-tumour effect on concentration was investigated. To perform these experiments, human lung cancer cells (A549) were cultivated in RPMI medium, supplemented with 10% foetal bovine […], 10 mM Hepes (pH 7.4), 2 mM glutamine, 2 g/l bicarbonate, 1 g/l glucose, 100 units/ml penicillin, 0.1 mg/ml streptomycin, 0.25 μg/ml Amphotericin B, at 37° C. and in the presence of 5% CO2. In a first experimental series, these cells were treated with various concentrations (0-400 μM) of OHOD and MOD11 and the number of cells was determined by flow cytometry (FIG. 3A). […] In a second series, the anti-tumour effectiveness on A549 lung cancer cells was investigated at a single concentration (150 μM) and a time of 48 hours (FIG. 3B). […] Obviously, among the previous molecules, some lacked both modifications on the α-carbon and the double bond in cis configuration (EO, HDO, ODO) and had no therapeutic effect. […]

SF767 human tumour cells = assay: Growth of SF767 tumour cells in culture; assay type: cell-based
Protocol: In a second experimental series, designed to discover whether these molecules are effective in treatment of different types of tumours, the effect of OHOD at various concentrations on human cells of different types of cancer was studied. These experiments were performed as described before, except that the M220 and HT-29 cell lines were cultured in DMEM medium and the MDA-MB-231 line was incubated in Leibowitz L-15 medium supplemented with 15% foetal bovine […]. […] Where the nature of the tumour process requires, application can be topical (use on the skin of active products for the treatment of melanoma and other cutaneous abnormalities of cancerous nature), which can be considered as cosmetic treatments when attempts are made to correct aesthetic defects.

hypertensive rats = assay: Arterial pressure in hypertensive rats after 8-day treatment (Table 5); assay type: in vivo, rat
[1] = Levels of cholesterol, triglycerides and glucose in rats after oral treatment; assay type: in vivo, rat
Protocol: FIG. 13. The four bars, from left to right respectively, show the effect of treatments with vehicle (control, first bar), OHOD at 200 mg/kg (second bar), OHOD at 400 mg/kg (third bar) and OHOD at 600 mg/kg (fourth bar) on the cholesterol levels (group of four bars to the left), triglycerides (group of four bars in the middle) and glucose (group of four bars to the right). The treatments were oral in all cases and were maintained for 30 days. The values indicated are the average obtained in 6 animals per group.
FIG. 14. Effect of treatment with vehicle (control) or with the fatty acids of the invention (600 mg/kg) on the levels of cholesterol, triglycerides and glucose. The values indicated are the average of the values obtained in 6 animals. Each group of three bars represents treatment with a different fatty acid with the left bar corresponding to cholesterol, the middle bar to triglycerides and the right bar to glucose.
Metabolic diseases form a set of pathologies characterised by the accumulation or deficit of certain molecules (cholesterol, triglycerides, glucose, etc.) in the serum or tissues. These changes are the reflection of dysfunctions that are normally associated with errors in the activity of certain enzymes or in the control of these proteins. Among the most important metabolopathies are hypercholesterolemia (elevated levels of cholesterol), hypertriglyceridemia (elevated levels of triglycerides) and diabetes (elevated levels of glucose). These pathologies have high rates of incidence, morbidity and mortality, so that treatment is a first order necessity. […] For these experiments, the dose of fatty acid indicated (0, 200, 400 and 600 mg/kg) was supplied daily via the oral route. At the end of the treatment (30 days), blood was sampled from control and treated animals (n=6) and the levels of cholesterol, triglycerides and glucose were determined using standard colorimetric methods.
(§1) In a further experiment, the effect of various molecules at a single dose (600 mg/kg) was investigated. […] In this sense, modification on the α-carbon and the double bond in cis configuration are crucial elements for producing the therapeutic effect indicated above. […] Finally, the effect of α-derivatives of cis-monounsaturated fatty acids on the prevention of obesity was investigated. For this, a model of rat obesity induced by a cafeteria diet, where the hypercaloric food increases the weight of the animals very markedly, was used. There were various experimental groups (see Table 3), each of which consisted of 6 female Wistar Kyoto rats of 250-300 g in weight. All the animals received a standard diet for 2 weeks. In addition, 2 of the groups received an oral preventative pre-treatment of vehicle and the other groups received 300 mg/kg of the fatty acids indicated below. Afterwards, one of the control groups was maintained on a standard diet (lean control) and the other was fed on a cafeteria diet (obese control). The treated animal groups were fed on the cafeteria diet. Preventative pre-treatment was maintained for all the groups. After two weeks on these diets, the lean control group had increased their body weight by an average of 16±16 g, while the obese control group had increased their body weight by an average of 43±17 g (statistically significance difference, p<0.01).

[2] = Body weight of rats on cafeteria diet, no pre-treatment (Table 5); assay type: in vivo, rat
From the text: (§2) The weight of treated animals was statistically less than the weight of obese control rats and statistically indistinguishable from that of lean control rats.

[3] = Rat obesity induced by cafeteria diet, preventative pre-treatment (Table 3); assay type: in vivo, Wistar Kyoto rats; conditions: 300 mg/kg oral, after two weeks on cafeteria diet; obese control 308 ± 17, lean control 280 ± 16; * lower than obese controls, ‡ indistinguishable
Protocol: as §1, §2

[4] = concentration that reduces the number of cells to half
[5] = arterial pressure, hypertensive rats, 8-day treatment, 400 mg/kg oral
[6] = rats, daily dose of 600 mg/kg oral, untreated controls = 100%
[7] = cafeteria diet for 2 weeks, 300 mg/kg daily oral, no pre-treatment

Row | Compound | IC50 (A549 cells; [4]) | IC50 (SF767 human tumour cells; [4]) | PA (control 214 mmHg) (hypertensive rats; [5]) | % control CHO (cholesterol) [1, 6] | % control TG (triglycerides) [1, 6] | Body weight (g) (control = 311 g) [2, 7] | tumour cell growth (number of cells, percent of untreated) (A549 cells) | Final weight [3] | other results
1 | CCCCCCCC/C=C\CCCCCCC(OC(C)=O)C(=O)OCC (stereo not shown) [EE- ACOD] | 185 µM | 176 µM | 158 mmHg | 72 % control | 56 % control | 294 g | – | – | –
2 | CCCCCCCCCCCCCCCC(=O)O [HDO, Hexadecanoic, reference compound] | – | – | – | – | – | – | did not show anti-tumour effectiveness | 299 ± 15‡ g | –
3 | CCCCCCCC/C=C\CCCCCCC(OC)C(=O)[O-].[Na+] (stereo not shown) [Na-MOOD] | 77 µM | 91 µM | 131 mmHg | 63 % control | 68 % control | 272 g | – | – | –
4 | CCCCCCCC/C=C\CCCCCCC(C(C)=O)C(=O)O (stereo not drawn) [ACOD, α-Acetyl-cis-Δ9-octadecenoic] | 153 µM | 179 µM | 157 mmHg | 59 % control | 53 % control | 301 g | – | – | –
5 | CCCCCCCC/C=C\CCCCCCC(OC(C)=O)C(=O)[O-].[Na+] (stereo not shown) [Na-ACOD] | 124 µM | 132 µM | 166 mmHg | 49 % control | 35 % control | 298 g | – | – | –
6 | CCCCCCCC/C=C\CCCCCCC(OP(=O)(OCC)OCC)C(=O)OC (stereo not shown) [OMe-DEPOD] | 66 µM | 43 µM | 175 mmHg | 63 % control | 45 % control | 293 g | – | – | –
7 | Trans-Hexadecenoic [HD, reference compound] | – | – | – | – | – | – | did not show anti-tumour effectiveness | 309 ± 15‡ g | –
8 | Cis-Eicosenoic [EE, reference compound] | – | – | – | – | – | – | did not show anti-tumour effectiveness | 301 ± 17‡ g | –
9 | CCCCCCCC/C=C\CCCCCCC(OP(=O)(OCC)OCC)C(=O)O (stereo not drawn) [DEPOD, α-diethyl-phosphatidyl-cis-Δ9-octadecenoic] | – | – | – | – | – | – | – | – | IC50 (A549 cells): 57 µM; IC50 (SF767 human tumour cells): 99 µM; PA (control 214 mmHg) (hypertensive rats; rat, in vivo, po, 400 mg/kg): 147 mmHg; % control CHO (cholesterol) ([1]; rat, in vivo, po, 600 mg/kg): 58 % control; % control TG (triglycerides) ([1]; rat, in vivo, po, 600 mg/kg): 43 % control; Body weight (g) (control = 311 g) ([2]; rat, in vivo): 301 g
10 | CCCCCCCCCCCCCCCCCCCC(=O)O [EO, Eicosanoic, reference compound] | – | – | – | – | – | – | did not show anti-tumour effectiveness | 298 ± 12‡ g | –
11 | CCCCCCCCCCCCCCCCC(O)C(=O)O (stereo not drawn) [OHS, α-Hydroxy-octadecanoic, reference compound] | – | – | – | – | – | – | lacked anti-tumour effectiveness | 314 ± 11‡ g | –
